Experimental data from patent publication US8536354B2, “Steroidal ligands and their use in gene switch modulation” (Intrexon Corporation, priority 2008, dated 2013).
Read-outs that look alike come from different tables or passages of the source.

What was measured:
[1] = biological target: wild-type Drosophila melanogaster EcR (DmEcR; GAL4-EcR DEF with VP16-RXR-USP chimera) (Drosophila melanogaster, UniProt P34021); assay: Two-hybrid gene switch assay, luciferase reporter, wild-type DmEcR, mouse NIH3T3 cells; type: cell-based
wild-type Drosophila melanogaster EcR (DmEcR; GAL4-EcR DEF with VP16-RXR-USP chimera), sequence (P34021 with tags, fused parts or gaps limits assumed): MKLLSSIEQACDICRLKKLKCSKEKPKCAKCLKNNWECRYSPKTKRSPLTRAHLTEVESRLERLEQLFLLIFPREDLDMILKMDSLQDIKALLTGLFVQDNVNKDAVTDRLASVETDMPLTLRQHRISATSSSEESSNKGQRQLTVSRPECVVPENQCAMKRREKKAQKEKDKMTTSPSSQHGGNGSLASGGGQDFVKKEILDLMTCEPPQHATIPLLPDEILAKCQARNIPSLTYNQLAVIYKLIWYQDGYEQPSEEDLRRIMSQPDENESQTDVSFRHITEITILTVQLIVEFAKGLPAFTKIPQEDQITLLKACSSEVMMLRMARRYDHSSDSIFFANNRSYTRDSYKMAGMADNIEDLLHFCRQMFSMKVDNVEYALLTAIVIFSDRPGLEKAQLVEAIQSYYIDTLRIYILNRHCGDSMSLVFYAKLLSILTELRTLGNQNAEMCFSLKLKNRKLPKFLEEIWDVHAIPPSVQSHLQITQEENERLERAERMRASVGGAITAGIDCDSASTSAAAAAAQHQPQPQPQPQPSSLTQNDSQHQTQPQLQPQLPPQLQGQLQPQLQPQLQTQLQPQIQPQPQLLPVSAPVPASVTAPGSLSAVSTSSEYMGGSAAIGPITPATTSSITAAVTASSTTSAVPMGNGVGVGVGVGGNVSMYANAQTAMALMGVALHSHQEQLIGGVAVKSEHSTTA

[2] = biological target: T1, BaEcR (GAL4-EcR DEF with VP16-RXR-USP chimera) (Bemisia tabaci, UniProt A0A6M3RDR8); assay: Two-hybrid gene switch assay, luciferase reporter, BaEcR, mouse NIH3T3 cells
T1 sequence (A0A6M3RDR8 115-530): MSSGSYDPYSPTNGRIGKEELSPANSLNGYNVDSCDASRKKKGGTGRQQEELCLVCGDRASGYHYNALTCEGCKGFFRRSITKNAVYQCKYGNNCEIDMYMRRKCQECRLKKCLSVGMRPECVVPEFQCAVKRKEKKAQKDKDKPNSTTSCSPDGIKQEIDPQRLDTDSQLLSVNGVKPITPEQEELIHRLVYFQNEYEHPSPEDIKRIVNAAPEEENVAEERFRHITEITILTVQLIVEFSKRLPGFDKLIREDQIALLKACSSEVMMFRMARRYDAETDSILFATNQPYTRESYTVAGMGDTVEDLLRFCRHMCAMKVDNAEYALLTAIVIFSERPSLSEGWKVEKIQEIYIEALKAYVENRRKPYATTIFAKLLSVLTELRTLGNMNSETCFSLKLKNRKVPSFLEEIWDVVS
T1 sequence (P28702 1-533 partner): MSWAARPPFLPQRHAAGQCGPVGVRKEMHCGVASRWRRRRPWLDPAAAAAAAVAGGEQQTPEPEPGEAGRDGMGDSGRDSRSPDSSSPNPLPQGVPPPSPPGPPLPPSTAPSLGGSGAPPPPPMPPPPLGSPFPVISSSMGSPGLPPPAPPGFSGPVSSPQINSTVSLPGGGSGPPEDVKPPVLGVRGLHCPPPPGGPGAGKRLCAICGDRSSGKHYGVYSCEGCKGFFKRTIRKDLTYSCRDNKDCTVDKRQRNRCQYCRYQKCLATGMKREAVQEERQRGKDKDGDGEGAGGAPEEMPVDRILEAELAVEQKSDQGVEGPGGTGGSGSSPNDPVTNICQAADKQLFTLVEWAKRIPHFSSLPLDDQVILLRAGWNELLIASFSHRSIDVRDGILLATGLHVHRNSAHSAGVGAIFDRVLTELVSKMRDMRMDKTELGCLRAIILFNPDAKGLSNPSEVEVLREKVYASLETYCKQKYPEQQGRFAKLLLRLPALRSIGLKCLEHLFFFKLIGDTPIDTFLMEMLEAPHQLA

[3] = system: NcEcR (GAL4-EcR DEF with VP16-RXR partner); assay: Two-hybrid gene switch assay, luciferase reporter, NcEcR, mouse NIH3T3 cells
[4] = biological target: BmEcR (GAL4-EcR DEF with VP16-RXR-USP chimera) (Bombyx mori, UniProt P49881); assay: Two-hybrid gene switch assay, luciferase reporter, BmEcR, mouse NIH3T3 cells; type: cell-based
BmEcR (GAL4-EcR DEF with VP16-RXR-USP chimera), sequence (P49881 other isoform, or with tags, fused parts or gaps, change not shown): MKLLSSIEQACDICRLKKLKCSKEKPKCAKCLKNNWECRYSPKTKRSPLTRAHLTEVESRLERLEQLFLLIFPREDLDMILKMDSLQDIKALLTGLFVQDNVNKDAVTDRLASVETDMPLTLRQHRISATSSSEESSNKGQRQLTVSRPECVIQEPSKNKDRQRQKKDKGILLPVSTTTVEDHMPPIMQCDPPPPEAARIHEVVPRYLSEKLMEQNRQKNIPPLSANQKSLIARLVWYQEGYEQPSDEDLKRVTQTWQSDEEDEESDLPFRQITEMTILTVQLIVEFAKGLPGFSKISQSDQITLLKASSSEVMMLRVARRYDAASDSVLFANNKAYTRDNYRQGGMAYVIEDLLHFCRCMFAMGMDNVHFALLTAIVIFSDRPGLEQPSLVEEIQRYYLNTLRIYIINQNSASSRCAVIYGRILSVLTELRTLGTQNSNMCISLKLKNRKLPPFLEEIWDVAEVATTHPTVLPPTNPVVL

[5] = biological target: T2, AmaEcR (GAL4-EcR DEF with VP16-RXR-USP chimera) (Amblyomma americanum, UniProt O44338); assay: Two-hybrid gene switch assay, luciferase reporter, AmaEcR, mouse NIH3T3 cells
T2 sequence (O44338 255-570): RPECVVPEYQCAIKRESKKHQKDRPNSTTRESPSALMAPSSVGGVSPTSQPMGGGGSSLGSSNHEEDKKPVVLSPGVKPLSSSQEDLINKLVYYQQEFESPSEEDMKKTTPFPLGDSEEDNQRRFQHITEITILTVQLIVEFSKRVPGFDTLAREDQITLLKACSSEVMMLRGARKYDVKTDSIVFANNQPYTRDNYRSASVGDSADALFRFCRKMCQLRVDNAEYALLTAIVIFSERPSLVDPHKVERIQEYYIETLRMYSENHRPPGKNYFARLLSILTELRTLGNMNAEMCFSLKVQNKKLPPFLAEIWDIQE
T2 sequence (P28702 1-533 partner): T1 sequence (P28702 1-533 partner)

[6] = biological target: T3, wild-type CfEcR (GAL4-CfEcR-DEF with VP16-RXR-USP chimera) (Choristoneura fumiferana, UniProt O77255); assay: Two-hybrid gene switch assay, luciferase reporter, wild-type CfEcR, mouse NIH3T3 cells
T3 sequence (O77255 219-541): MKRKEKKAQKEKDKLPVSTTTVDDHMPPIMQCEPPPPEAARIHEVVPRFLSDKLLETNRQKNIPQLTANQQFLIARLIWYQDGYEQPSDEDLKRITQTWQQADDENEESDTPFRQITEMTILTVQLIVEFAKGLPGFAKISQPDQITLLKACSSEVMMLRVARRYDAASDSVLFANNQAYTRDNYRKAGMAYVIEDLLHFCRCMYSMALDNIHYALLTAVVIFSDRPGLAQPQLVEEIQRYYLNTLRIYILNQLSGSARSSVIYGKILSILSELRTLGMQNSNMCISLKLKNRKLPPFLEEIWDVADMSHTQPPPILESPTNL
T3 sequence (P28702 1-533 partner): T1 sequence (P28702 1-533 partner)

[7] = biological target: T4, TmEcR (GAL4-EcR DEF with VP16-RXR partner) (Tenebrio molitor, UniProt O02035); assay: Two-hybrid gene switch assay, luciferase reporter, TmEcR, mouse NIH3T3 cells
T4 sequence (O02035 194-491): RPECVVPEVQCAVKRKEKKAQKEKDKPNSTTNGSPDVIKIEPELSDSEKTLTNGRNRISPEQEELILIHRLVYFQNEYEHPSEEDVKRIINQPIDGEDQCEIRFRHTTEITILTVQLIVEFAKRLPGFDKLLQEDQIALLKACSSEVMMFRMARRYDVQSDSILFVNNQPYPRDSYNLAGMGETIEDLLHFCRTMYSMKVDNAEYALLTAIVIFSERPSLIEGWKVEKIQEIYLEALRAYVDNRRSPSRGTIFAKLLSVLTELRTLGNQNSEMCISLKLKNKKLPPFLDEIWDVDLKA
T4 sequence (P28704 1-520 partner): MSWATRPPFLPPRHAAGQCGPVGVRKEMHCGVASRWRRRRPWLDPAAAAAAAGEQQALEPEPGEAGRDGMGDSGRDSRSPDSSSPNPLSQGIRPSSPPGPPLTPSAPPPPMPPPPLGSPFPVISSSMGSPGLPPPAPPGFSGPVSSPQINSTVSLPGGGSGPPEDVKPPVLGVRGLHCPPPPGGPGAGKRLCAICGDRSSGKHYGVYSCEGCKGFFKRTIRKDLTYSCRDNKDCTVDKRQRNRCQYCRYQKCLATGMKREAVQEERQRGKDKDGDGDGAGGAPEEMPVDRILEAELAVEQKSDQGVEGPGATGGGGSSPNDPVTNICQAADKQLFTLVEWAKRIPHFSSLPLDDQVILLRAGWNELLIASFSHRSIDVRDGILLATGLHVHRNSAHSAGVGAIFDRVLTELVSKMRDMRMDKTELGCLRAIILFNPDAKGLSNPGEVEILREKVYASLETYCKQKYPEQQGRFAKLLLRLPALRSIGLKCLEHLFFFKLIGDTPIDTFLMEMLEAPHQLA

[8] = biological target: T5, MsEcR (GAL4-EcR DEF with VP16-RXR-USP chimera) (Manduca sexta, UniProt P49883); assay: Two-hybrid gene switch assay, luciferase reporter, MsEcR, mouse NIH3T3 cells
T5 sequence (P49883 1-556): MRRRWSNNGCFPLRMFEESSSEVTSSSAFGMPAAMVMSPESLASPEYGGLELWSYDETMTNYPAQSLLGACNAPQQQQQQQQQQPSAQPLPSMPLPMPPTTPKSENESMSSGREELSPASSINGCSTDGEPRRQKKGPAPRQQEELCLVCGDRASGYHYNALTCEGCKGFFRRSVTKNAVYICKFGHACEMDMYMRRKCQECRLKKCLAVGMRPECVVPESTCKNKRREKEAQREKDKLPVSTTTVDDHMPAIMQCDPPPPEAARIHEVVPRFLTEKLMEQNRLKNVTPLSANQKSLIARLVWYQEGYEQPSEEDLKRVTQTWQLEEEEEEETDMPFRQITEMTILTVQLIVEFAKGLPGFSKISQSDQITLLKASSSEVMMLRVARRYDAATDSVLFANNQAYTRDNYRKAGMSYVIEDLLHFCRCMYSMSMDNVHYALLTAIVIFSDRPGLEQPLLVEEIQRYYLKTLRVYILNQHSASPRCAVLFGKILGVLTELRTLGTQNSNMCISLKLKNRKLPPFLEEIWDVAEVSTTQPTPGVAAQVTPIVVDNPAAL
T5 sequence (P28702 1-533 partner): T1 sequence (P28702 1-533 partner)

[9] = biological target: wild-type Aedes aegypti EcR (AaEcR; GAL4-EcR DEF with VP16-RXR-USP chimera) (Aedes aegypti, UniProt P49880); assay: Two-hybrid gene switch assay, luciferase reporter, wild-type AaEcR, mouse NIH3T3 cells; type: cell-based; conditions: read-out: EC50
wild-type Aedes aegypti EcR (AaEcR; GAL4-EcR DEF with VP16-RXR-USP chimera), sequence (P49880 with tags, fused parts or gaps limits assumed, change not shown): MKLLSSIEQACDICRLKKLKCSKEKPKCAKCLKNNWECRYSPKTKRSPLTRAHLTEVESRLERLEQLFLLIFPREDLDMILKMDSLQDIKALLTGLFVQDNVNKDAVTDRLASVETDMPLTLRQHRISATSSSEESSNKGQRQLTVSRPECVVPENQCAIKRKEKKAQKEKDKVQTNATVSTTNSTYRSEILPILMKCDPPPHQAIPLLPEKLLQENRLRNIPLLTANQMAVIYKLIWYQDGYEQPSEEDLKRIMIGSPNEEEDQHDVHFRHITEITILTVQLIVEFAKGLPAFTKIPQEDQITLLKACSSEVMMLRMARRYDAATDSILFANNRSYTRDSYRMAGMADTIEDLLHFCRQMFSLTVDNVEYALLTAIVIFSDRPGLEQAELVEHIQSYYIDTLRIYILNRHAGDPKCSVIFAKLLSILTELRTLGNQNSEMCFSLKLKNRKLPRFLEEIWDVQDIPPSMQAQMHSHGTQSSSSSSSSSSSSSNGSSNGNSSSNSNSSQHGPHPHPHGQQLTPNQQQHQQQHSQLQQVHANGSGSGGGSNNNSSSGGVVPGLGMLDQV

[10] = system: D. melanogaster BII cell line (expresses the ecdysteroid receptor complex EcR-USP); assay: Drosophila melanogaster BII cell line bioassay (turbidometric; agonist and antagonist versions); conditions: read-out: EC50 (M), BII bioassay results
[11] = EC50, FIG. 14A/14B, GAL4-EcR(DEF) with VP16-RXR-USP chimera
[12] = EC50, FIG. 14A/14B, GAL4-EcR(DEF)
[13] = EC50, FIG. 13A/13B, GAL4-EcR(DEF) with VP16-RXR-USP chimera
[14] = FIG. 14A/14B, GAL4-EcR(DEF) with VP16-RXR-USP chimera, read-out: EC50
[15] = FIG. 13A/13B, BmEcR, GAL4-EcR(DEF) with VP16-RXR-USP chimera, read-out: EC50
[16] = FIG. 14A/14B, GAL4-EcR(DEF) with VP16-RXR-USP chimera
[17] = EC50, FIG. 16, GAL4-EcR (DEF) / VP16-RXR-USP chimera

CC(C)(O)CCCC(C)(O)C1CCC2(O)C3=CC(=O)C4CC(O)C(O)CC4(C)C3CCC12C (stereo not shown)
EC50 [1, 11]: ~20 µM | EC50 [2, 11]: ~10 µM | EC50 ([3]; FIG. 14A/14B, GAL4-EcR(DEF)): 3.04 µM | EC50 [4]: > 33 µM | EC50 [5, 11]: ~10 µM | EC50 [6]: > 33 µM | EC50 [7, 12]: ~20 µM | EC50 [8, 13]: ~15 µM

CC(C)(O)CC[C@@H](O)[C@](C)(O)[C@H]1CC[C@@]2(O)C3=CC(=O)[C@@H]4C[C@H](O)[C@@H](O)C[C@]4(C)[C@H]3CC[C@]12C
EC50 [1, 14]: ~20 µM | EC50 [2, 11]: ~20 µM | EC50 ([3]; FIG. 14A/14B, GAL4-EcR(DEF)): 4.84 µM | EC50 [4, 15]: > 33 µM | EC50 [5, 11]: ~10 µM | EC50 [7, 12]: > 33 µM | EC50 [8, 13]: ~10 µM | EC50 [9, 16]: ~8 µM

CC(C)(O)CC[C@@H](O)[C@](C)(O)[C@H]1CC[C@@]2(O)C3=CC(=O)[C@H]4C[C@@H](O)[C@@H](O)C[C@]4(C)[C@H]3CC[C@]12C [(5a-H)-20-hydroxyecdysone]
EC50 [1, 14]: > 33 µM | EC50 [2, 11]: > 33 µM | EC50 ([3]; FIG. 14A/14B, GAL4-EcR(DEF)): ~15 µM | EC50 [4, 15]: > 33 µM | EC50 [5, 11]: > 33 µM | EC50 [7, 12]: > 33 µM | EC50 [8, 13]: > 33 µM | EC50 [9, 16]: ~20 µM

CO[C@H]1C[C@@]2(C)[C@@H](C[C@H]1O)C(=O)C=C1[C@@H]2CC[C@]2(C)[C@@H]([C@@](C)(O)C(O)CCC(C)(C)O)CC[C@@]12O (stereo partly shown) [compound 1, 20-hydroxyecdysone, 2-methyl ether]
EC50 ([10]; D. melanogaster BII cell line, turbidometric): 1.1e-06 M

CO[C@@]12CCC([C@@](C)(O)[C@H](O)CCC(C)(C)O)C1(C)CCC1C2=CC(=O)C2C[C@@H](O)[C@@H](O)CC21C (stereo partly shown) [compound 3, 20-hydroxyecdysone, 14-methyl ether]
EC50 ([10]; Drosophila melanogaster): 3.2e-06 M

CCCO[C@H](CCC(C)(C)O)[C@](C)(O)C1CC[C@@]2(O)C3=CC(=O)C4C[C@@H](O)[C@@H](O)CC4(C)C3CCC12C (stereo partly shown) [compound 6, 20-hydroxyecdysone, 22-n-propyl ether]
EC50 ([10]; Drosophila melanogaster): 8.3e-07 M

C=CCO[C@H](CCC(C)(C)O)[C@](C)(O)C1CC[C@@]2(O)C3=CC(=O)C4C[C@@H](O)[C@@H](O)CC4(C)C3CCC12C (stereo partly shown) [compound 7, 20-hydroxyecdysone, 22-allyl ether]
EC50 ([10]; Drosophila melanogaster): 1.6e-07 M

CCCCO[C@H](CCC(C)(C)O)[C@](C)(O)C1CC[C@@]2(O)C3=CC(=O)C4C[C@@H](O)[C@@H](O)CC4(C)C3CCC12C (stereo partly shown) [compound 8, 20-hydroxyecdysone, 22-n-butyl ether]
EC50 ([10]; Drosophila melanogaster): 1e-07 M

CC(=O)C1CCC2(O)C3=CC(=O)C4CC(O)C(O)CC4(C)C3CCC12C (stereo not shown) [poststerone]
EC50 [1, 11]: > 33 µM | EC50 [1, 17]: > 33 µM | EC50 [2, 11]: > 33 µM | EC50 [2, 17]: > 33 µM | EC50 ([3]; FIG. 16, GAL4-EcR (DEF)): ~10 µM | EC50 ([4]; read-out: EC50): > 33 µM | EC50 [5, 11]: > 33 µM | EC50 [5, 17]: ~10 µM | EC50 [7, 12]: > 33 µM | EC50 ([7]; EC50, FIG. 16, GAL4-EcR (DEF)): > 33 µM | EC50 [8, 13]: > 33 µM | EC50 ([8]; EC50, FIG. 15, GAL4-EcR (DEF) / VP16-RXR-USP chimera): > 33 µM | EC50 [9, 16]: > 33 µM | EC50 ([9]; FIG. 16, GAL4-EcR (DEF) / VP16-RXR-USP chimera): 10.5 µM
